Consider 29 compounds from patent US10829501B2 (BRISTOL-MYERS SQUIBB COMPANY, priority 2016, dated 2020).

In this test the target is ROCK2 (Homo sapiens, UniProt O75116). As to the kind of experiment: ROCK2 kinase inhibition assay (LABCHIP 3000 Reader, FITC peptide substrate).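 Also: rho kinase reaction read by separating phosphorylated from unphosphorylated peptide on chip, with inhibition of kinase activity computed per concentration across a dose-response series.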

Each structure is given as a SMILES string. Counter-ions that a name gives are not always drawn. A value given as a limit tells only on which side of the number the result lay.

ROCK2, sequence (O75116 whole entry, species assumed): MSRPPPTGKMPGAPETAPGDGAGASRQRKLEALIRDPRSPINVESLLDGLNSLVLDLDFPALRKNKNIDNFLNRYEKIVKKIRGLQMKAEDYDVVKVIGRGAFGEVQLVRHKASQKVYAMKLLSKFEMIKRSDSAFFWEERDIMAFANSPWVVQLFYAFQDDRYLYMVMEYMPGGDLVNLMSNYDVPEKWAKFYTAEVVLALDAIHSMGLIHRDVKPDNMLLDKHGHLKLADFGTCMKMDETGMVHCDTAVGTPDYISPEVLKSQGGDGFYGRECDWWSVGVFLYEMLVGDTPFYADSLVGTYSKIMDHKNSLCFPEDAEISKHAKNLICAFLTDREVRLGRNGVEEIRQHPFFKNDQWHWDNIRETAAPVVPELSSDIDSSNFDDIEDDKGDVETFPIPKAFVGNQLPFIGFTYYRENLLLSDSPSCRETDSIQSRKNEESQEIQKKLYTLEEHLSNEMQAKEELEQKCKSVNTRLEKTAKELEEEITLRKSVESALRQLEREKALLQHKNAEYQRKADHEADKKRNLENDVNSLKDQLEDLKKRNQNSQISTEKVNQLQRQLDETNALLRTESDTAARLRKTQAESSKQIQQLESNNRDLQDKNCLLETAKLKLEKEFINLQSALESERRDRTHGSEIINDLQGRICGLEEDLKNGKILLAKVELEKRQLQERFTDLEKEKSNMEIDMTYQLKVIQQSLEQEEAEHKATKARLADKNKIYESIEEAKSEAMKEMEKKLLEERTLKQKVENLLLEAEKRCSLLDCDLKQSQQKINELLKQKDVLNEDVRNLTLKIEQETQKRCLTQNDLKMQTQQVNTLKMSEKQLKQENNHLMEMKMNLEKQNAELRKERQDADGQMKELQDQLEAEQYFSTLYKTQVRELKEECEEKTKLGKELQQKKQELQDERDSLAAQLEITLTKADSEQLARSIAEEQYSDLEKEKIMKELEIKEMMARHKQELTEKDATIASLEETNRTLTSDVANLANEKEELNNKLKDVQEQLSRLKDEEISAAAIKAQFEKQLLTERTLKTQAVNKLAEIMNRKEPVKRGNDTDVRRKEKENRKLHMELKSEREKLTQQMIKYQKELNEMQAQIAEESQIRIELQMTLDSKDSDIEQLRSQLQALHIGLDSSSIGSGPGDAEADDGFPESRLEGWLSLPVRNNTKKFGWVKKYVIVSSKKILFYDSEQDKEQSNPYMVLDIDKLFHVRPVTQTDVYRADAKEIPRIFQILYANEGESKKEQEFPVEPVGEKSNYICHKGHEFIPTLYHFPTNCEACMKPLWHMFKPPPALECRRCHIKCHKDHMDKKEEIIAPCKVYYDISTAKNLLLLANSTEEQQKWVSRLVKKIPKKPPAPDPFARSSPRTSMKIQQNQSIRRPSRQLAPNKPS

As to `Cc1nc2cc(-c3cc(C#N)cc(C(=O)N[C@H]4CC5(C4)C[C@H](Oc4ncccc4C(N)=O)C5)c3)ccc2s1` (stereo partly drawn) [Example 186, 2-(((aR)-6-(3-cyano-5-(2-methylbenzo[d]thiazol-5-yl)benzamido)spiro[3.3]heptan-2-yl)oxy)nicotinamide, trifluoroacetate], the IC50 was less than 0.005 µM.

The compound `CC(C)Cn1cc(-c2cc(C#N)cc(C(=O)N[C@H]3CC4(C3)C[C@H](Oc3ncccc3C(N)=O)C4)c2)cn1` (stereo partly drawn) [Example 187, 2-((aR)-6-(3-cyano-5-(1-isobutyl-1H-pyrazol-4-yl)benzamido)spiro [3.3]heptan-2-yl)oxy)nicotinamide, trifluoroacetate] had an IC50 of less than 0.005 µM.

On to `Cc1nc(-c2ccc(C(F)(F)F)cc2)sc1-c1cc(C#N)cc(C(=O)N[C@H]2CC3(C2)C[C@H](Oc2ncccc2C(N)=O)C3)c1` (stereo partly drawn) [Example 188, 2-((aR)-6-(3-cyano-5-(4-methyl-2-(4-(trifluoromethyl)phenyl)thiazol-5-yl)benzamido)spiro[3.3]heptan-2-yl)oxy)nicotinamide, trifluoroacetate], for which the IC50 was 0.25 to 2.5 µM.

Compound `N#Cc1cc(C(=O)N[C@H]2CC3(C2)C[C@H](Oc2ncccc2C(N)=O)C3)cc(-c2ccc3c(c2)CCC(=O)N3)c1` (stereo partly drawn) [Example 189, 2-((aR)-6-(3-cyano-5-(2-oxo-1,2,3,4-tetrahydroquinolin-6-yl)benzamido)spiro[3.3]heptan-2-yl)oxy)nicotinamide, trifluoroacetate] gave a half-inhibitory concentration (IC50) of less than 0.005 µM.

Turning to `Cc1noc(C)c1-c1cc(C#N)cc(C(=O)N[C@H]2CC3(C2)C[C@H](Oc2ncccc2C(N)=O)C3)c1` (stereo partly drawn) [Example 190, 2-((aR)-6-(3-cyano-5-(3,5-dimethylisoxazol-4-yl)benzamido)spiro[3.3]heptan-2-yl)oxy)nicotinamide, trifluoroacetate], the IC50 is 0.005 to 0.05 µM.

`N#Cc1cc(C(=O)N[C@H]2CC3(C2)C[C@H](Oc2ncccc2C(N)=O)C3)cc(-c2ccc(C#N)nc2)c1` (stereo partly drawn) [Example 191, 2-(((aR)-6-(3-cyano-5-(6-cyanopyridin-3-yl)benzamido)spiro[3.3]heptan-2-yl)oxy)nicotinamide, trifluoroacetate] showed an IC50 of 0.005 to 0.05 µM.

`Cn1ccc(-c2cc(C#N)cc(C(=O)N[C@H]3CC4(C3)C[C@H](Oc3ncccc3C(N)=O)C4)c2)cc1=O` (stereo partly drawn) [Example 192, 2-(((aR)-6-(3-cyano-5-(1-methyl-2-oxo-1,2-dihydropyridin-4-yl)benzamido)spiro[3.3]heptan-2-yl)oxy)nicotinamide, trifluoroacetate]: the half-inhibitory concentration (IC50) lay within 0.005 to 0.05 µM.

`N#Cc1cc(C(=O)N[C@H]2CC3(C2)C[C@H](Oc2ncccc2C(N)=O)C3)cc(-c2c[nH]nc2C(F)(F)F)c1` (stereo partly drawn) [Example 193, 2-(((aR)-6-(3-cyano-5-(3-(trifluoromethyl)-1H-pyrazol-4-yl)benzamido)spiro[3.3]heptan-2-yl)oxy)nicotinamide, trifluoroacetate] yielded an IC50 of 0.005 to 0.05 µM.

With `Cn1cccc(-c2cc(C#N)cc(C(=O)N[C@H]3CC4(C3)C[C@H](Oc3ncccc3C(N)=O)C4)c2)c1=O` (stereo partly drawn) [Example 194, 2-(((aR)-6-(3-cyano-5-(1-methyl-2-oxo-1,2-dihydropyridin-3-yl)benzamido)spiro[3.3]heptan-2-yl)oxy)nicotinamide, trifluoroacetate], the IC50 was 0.005 to 0.05 µM.

Turning to `CS(=O)(=O)c1ccccc1-c1cc(C#N)cc(C(=O)N[C@H]2CC3(C2)C[C@H](Oc2ncccc2C(N)=O)C3)c1` (stereo partly drawn) [Example 196, 2-(((aR)-6-(5-cyano-2′-(methylsulfonyl)-[1,1′-biphenyl]-3-ylcarboxamido)spiro[3.3]heptan-2-yl)oxy)nicotinamide], the IC50 is less than 0.005 µM.

`Cn1nccc1-c1cc(C#N)cc(C(=O)N[C@H]2CC3(C2)C[C@H](Oc2ncccc2C(N)=O)C3)c1` (stereo partly drawn) [Example 197, 2-(((aR)-6-(3-cyano-5-(1-methyl-1H-pyrazol-5-yl)benzamido)spiro[3.3]heptan-2-yl)oxy)nicotinamide] displayed a concentration for half-maximal inhibition (IC50) of 0.005 to 0.05 µM.

`N#Cc1cc(C(=O)N[C@H]2CC3(C2)C[C@H](Oc2ncccc2C(N)=O)C3)cc(-c2cnn(C(F)F)c2)c1` (stereo partly drawn) [Example 198, 2-(((aR)-6-(3-cyano-5-(1-(difluoromethyl)-1H-pyrazol-4-yl)benzamido)spiro[3.3]heptan-2-yl)oxy)nicotinamide] displayed an IC50 of less than 0.005 µM.

As to `[H][C@]1(Oc2ncccc2C(N)=O)C[C@@]2(C[C@H](NC(=O)c3cc(C#N)cc(-c4nc5c(s4)CNCC5)c3)C2)C1` (stereo partly drawn) [Example 199, 2-(((aR)-6-(3-cyano-5-(4,5,6,7-tetrahydrothiazolo[5,4-c]pyridin-2-yl)benzamido)spiro[3.3]heptan-2-yl)oxy)nicotinamide, 2TFA], the 50% inhibitory concentration (IC50) fell in the range of 0.005 to 0.05 µM.

Turning to `CN1CCc2nc(-c3cc(C#N)cc(C(=O)N[C@H]4CC5(C4)C[C@H](Oc4ncccc4C(N)=O)C5)c3)sc2C1` (stereo partly drawn) [Example 200, 2-(((aR)-6-(3-cyano-5-(5-methyl-4,5,6,7-tetrahydrothiazolo[5,4-c]pyridin-2-yl)benzamido)spiro[3.3]heptan-2-yl)oxy)nicotinamide, bis-trifluoroacetate], the IC50 lay within 0.005 to 0.05 µM.

In turn, `Cc1nc(-c2cc(C#N)cc(C(=O)N[C@H]3CC4(C3)C[C@H](Oc3ncccc3C(N)=O)C4)c2)cs1` (stereo partly drawn) [Example 203, 2-(((aR)-6-(3-cyano-5-(2-methylthiazol-4-yl)benzamido)spiro[3.3]heptan-2-yl)oxy)nicotinamide, trifluoroacetate] gave an IC50 of 0.005 to 0.05 µM.

Regarding `COc1cccc(C(N)=O)c1OC1CC2(CC(NC(=O)c3cnn4c(C5CC5)c(OCC(C)(C)O)ccc34)C2)C1` (centres unmarked) [Example 208, N-(6-(2-carbamoyl-6-methoxyphenoxy)spiro[3.3]heptan-2-yl)-7-cyclopropyl-6-(2-hydroxy-2-methylpropoxy)pyrazolo[1,5-a]pyridine-3-carboxamide], the IC50 lay within 0.25 to 2.5 µM.

`COc1cccc(C(N)=O)c1OC1CC2(CC(NC(=O)c3cnn4cc(OCC(C)(C)O)ccc34)C2)C1` (centres unmarked) [Example 209, N-(6-(2-carbamoyl-6-methoxyphenoxy)spiro[3.3]heptan-2-yl)-6-(2-hydroxy-2-methylpropoxy)pyrazolo[1,5-a]pyridine-3-carboxamide]: the IC50 was 0.25 to 2.5 µM.

The compound `COc1ccc(C(N)=O)c(OC2CC3(CC(NC(=O)c4cnn5cc(OCC(C)(C)O)ccc45)C3)C2)c1` (centres unmarked) [Example 210, N-(6-(2-carbamoyl-5-methoxyphenoxy)spiro[3.3]heptan-2-yl)-6-(2-hydroxy-2-methylpropoxy)pyrazolo[1,5-a]pyridine-3-carboxamide] came in with an IC50 of 0.005 to 0.05 µM.

`COc1ccc(C(N)=O)c(OC2CC3(CC(NC(=O)c4cnn5c(C6CC6)c(OCC(C)(C)O)ccc45)C3)C2)c1` (centres unmarked) [Example 211, N-(6-(2-carbamoyl-5-methoxyphenoxy)spiro[3.3]heptan-2-yl)-7-cyclopropyl-6-(2-hydroxy-2-methylpropoxy)pyrazolo[1,5-a]pyridine-3-carboxamide] registered an IC50 of less than 0.005 µM.

With `COc1ccc(OC2CC3(CC(NC(=O)c4cnn5cc(OCC(C)(C)O)ccc45)C3)C2)c(C(N)=O)c1` (centres unmarked) [Example 212, N-(6-(2-carbamoyl-4-methoxyphenoxy)spiro[3.3]heptan-2-yl)-6-(2-hydroxy-2-methylpropoxy)pyrazolo[1,5-a]pyridine-3-carboxamide], the IC50 was 0.25 to 2.5 µM.

On to `COc1ccc(OC2CC3(CC(NC(=O)c4cnn5c(C6CC6)c(OCC(C)(C)O)ccc45)C3)C2)c(C(N)=O)c1` (centres unmarked) [Example 213, N-(6-(2-carbamoyl-4-methoxyphenoxy)spiro[3.3]heptan-2-yl)-7-cyclopropyl-6-(2-hydroxy-2-methylpropoxy)pyrazolo[1,5-a]pyridine-3-carboxamide], for which the half-maximal inhibitory concentration (IC50) was in the range of 0.005 to 0.05 µM.

On to `Cc1cccc(C(N)=O)c1OC1CC2(CC(NC(=O)c3cnn4c(C5CC5)c(OCC(C)(C)O)ccc34)C2)C1` (centres unmarked) [Example 214, N-(6-(2-carbamoyl-6-methylphenoxy)spiro[3.3]heptan-2-yl)-7-cyclopropyl-6-(2-hydroxy-2-methylpropoxy)pyrazolo[1,5-a]pyridine-3-carboxamide], for which the IC50 lay in the range of 0.25 to 2.5 µM.

Compound `Cc1ccc(C(N)=O)c(OC2CC3(CC(NC(=O)c4cnn5cc(OCC(C)(C)O)ccc45)C3)C2)c1` (centres unmarked) [Example 215, N-(6-(2-carbamoyl-5-methylphenoxy)spiro[3.3]heptan-2-yl)-6-(2-hydroxy-2-methylpropoxy)pyrazolo[1,5-a]pyridine-3-carboxamide] had a 50% inhibitory concentration (IC50) of 0.005 to 0.05 µM.

Turning to `Cc1ccc(OC2CC3(CC(NC(=O)c4cnn5c(C6CC6)c(OCC(C)(C)O)ccc45)C3)C2)c(C(N)=O)c1` (centres unmarked) [Example 216, N-(6-(2-carbamoyl-4-methylphenoxy)spiro[3.3]heptan-2-yl)-7-cyclopropyl-6-(2-hydroxy-2-methylpropoxy)pyrazolo[1,5-a]pyridine-3-carboxamide], the IC50 was in the range of 0.005 to 0.05 µM.

`Cc1ccc(C(N)=O)c(OC2CC3(CC(NC(=O)c4cnn5c(C6CC6)c(OCC(C)(C)O)ccc45)C3)C2)c1` (centres unmarked) [Example 217, N-(6-(2-carbamoyl-5-methylphenoxy)spiro[3.3]heptan-2-yl)-7-cyclopropyl-6-(2-hydroxy-2-methylpropoxy)pyrazolo[1,5-a]pyridine-3-carboxamide] registered a 50% inhibitory concentration (IC50) of less than 0.005 µM.

For the compound `Cc1ccc(OC2CC3(CC(NC(=O)c4cnn5cc(OCC(C)(C)O)ccc45)C3)C2)c(C(N)=O)c1` (centres unmarked) [Example 218, N-(6-(2-carbamoyl-4-methylphenoxy)spiro[3.3]heptan-2-yl)-6-(2-hydroxy-2-methylpropoxy)pyrazolo[1,5-a]pyridine-3-carboxamide], the IC50 lay within 0.25 to 2.5 µM.

`CC(C)(O)COc1ccc2c(C(=O)NC3CC4(C3)CC(Oc3cc(OC(F)F)ccc3C(N)=O)C4)cnn2c1` (centres unmarked) [Example 219, N-(6-(2-carbamoyl-5-(difluoromethoxy)phenoxy)spiro[3.3]heptan-2-yl)-6-(2-hydroxy-2-methylpropoxy)pyrazolo[1,5-a]pyridine-3-carboxamide] gave an IC50 of 0.005 to 0.05 µM.

In turn, `CC(C)(O)COc1ccc2c(C(=O)NC3CC4(C3)CC(Oc3cc(Cl)ccc3C(N)=O)C4)cnn2c1` (centres unmarked) [Example 220, N-(6-(2-carbamoyl-5-chlorophenoxy)spiro[3.3]heptan-2-yl)-6-(2-hydroxy-2-methylpropoxy)pyrazolo[1,5-a]pyridine-3-carboxamide] showed an IC50 of 0.005 to 0.05 µM.

In turn, `CC(C)(O)COc1ccc2c(C(=O)NC3CC4(C3)CC(Oc3cc(-n5ccnc5)ccc3C(N)=O)C4)cnn2c1` (centres unmarked) [Example 221] gave an IC50 of 0.05 to 0.25 µM.

Broadly, the IC50 is the concentration that gives 50% inhibition. Low readings indicate higher potency, high ones lower potency.
